According to BindingDB's records for patent US11091471 (Hoffmann-La Roche, 2021):

Biological target: Gamma-aminobutyric acid receptor subunit gamma-2 / Gamma-aminobutyric acid receptor subunit alpha-5 (Homo sapiens, UniProt P18507+P31644)
Assay: Electrophysiology
Procedure: Electrophysiological experiments were performed on days 3 to 5 after the micro-injection of mRNA. During the experiment the oocytes were constantly superfused by a solution containing (in mM) NaCl 90, KCl 1, HEPES 5, MgCl2 1, CaCl2 1 (pH 7.4). Oocytes were impaled by two glass microelectrodes (resistance: 0.4 MΩ) which were filled with a solution containing KCl 1M+K-acetate 1.5 M and voltage-clamped to −80 mV. The recordings were performed at room temperature using the Roboocyte two-electrode voltage clamp system (Multichannelsystem). After an initial equilibration period of 1.5 min GABA was added for 1.5 min at a concentration evoking approximately 20% of a maximal current response (EC20). After another rest interval of 2.5 min GABA was again added evoking a response of similar amplitude and shape. 0.5 min after the onset of this second GABA application the test compound, at a concentration corresponding to approximatively 30 fold its Ki, was added while GABA was still present. Current traces were recorded at a digitization rate of 10 Hz during and shortly before and after the GABA application.

Gamma-aminobutyric acid receptor subunit gamma-2 / Gamma-aminobutyric acid receptor subunit alpha-5, sequence (P18507 40-475 limits assumed): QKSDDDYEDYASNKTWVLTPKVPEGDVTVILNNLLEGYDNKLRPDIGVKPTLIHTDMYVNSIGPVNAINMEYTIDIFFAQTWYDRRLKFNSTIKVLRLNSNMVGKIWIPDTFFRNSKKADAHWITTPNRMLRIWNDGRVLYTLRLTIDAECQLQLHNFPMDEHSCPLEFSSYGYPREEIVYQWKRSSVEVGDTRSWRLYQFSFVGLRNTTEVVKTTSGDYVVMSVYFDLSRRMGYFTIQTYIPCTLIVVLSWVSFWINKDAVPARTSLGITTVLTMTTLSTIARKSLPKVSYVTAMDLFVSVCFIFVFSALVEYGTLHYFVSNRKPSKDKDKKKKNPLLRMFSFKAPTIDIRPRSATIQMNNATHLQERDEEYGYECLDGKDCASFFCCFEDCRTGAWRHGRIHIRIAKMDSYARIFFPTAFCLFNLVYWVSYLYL
Gamma-aminobutyric acid receptor subunit gamma-2 / Gamma-aminobutyric acid receptor subunit alpha-5, sequence (P31644 32-462 limits assumed): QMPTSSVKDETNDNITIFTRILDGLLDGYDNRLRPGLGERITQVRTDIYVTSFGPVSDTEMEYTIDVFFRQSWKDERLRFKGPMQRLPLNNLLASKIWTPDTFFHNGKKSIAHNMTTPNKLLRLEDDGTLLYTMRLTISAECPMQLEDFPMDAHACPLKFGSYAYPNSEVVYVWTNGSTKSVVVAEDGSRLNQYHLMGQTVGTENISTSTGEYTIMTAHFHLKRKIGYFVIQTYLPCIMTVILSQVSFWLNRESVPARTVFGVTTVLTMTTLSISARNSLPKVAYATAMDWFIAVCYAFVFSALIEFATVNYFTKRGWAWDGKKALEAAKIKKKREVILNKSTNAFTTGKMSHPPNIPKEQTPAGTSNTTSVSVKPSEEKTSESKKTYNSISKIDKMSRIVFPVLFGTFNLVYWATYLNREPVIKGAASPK

Ki: 9.3 nM
SMILES: Cc1onc(-c2ccc(Cl)nc2)c1COc1ccc(C(=O)N[C@H]2CCOC2)nn1 [US11091471, Example 160]
